Laboratory results as given in patent publication US8846739B2, “TGR5 agonists” (Exelixis Patent Company LLC, priority 2009, dated 2014).

Assays:
h-TGR5 = biological target: T1, h-TGR5 (Homo sapiens, UniProt Q8TDU6); assay: TGR5 cAMP Assay using Cisbio cAMP Dynamic 2 htrf assay kit; format: cell-based; conditions: hTGR5CRE-luc HEK 293 cells
T1 sequence (Q8TDU6 1-330): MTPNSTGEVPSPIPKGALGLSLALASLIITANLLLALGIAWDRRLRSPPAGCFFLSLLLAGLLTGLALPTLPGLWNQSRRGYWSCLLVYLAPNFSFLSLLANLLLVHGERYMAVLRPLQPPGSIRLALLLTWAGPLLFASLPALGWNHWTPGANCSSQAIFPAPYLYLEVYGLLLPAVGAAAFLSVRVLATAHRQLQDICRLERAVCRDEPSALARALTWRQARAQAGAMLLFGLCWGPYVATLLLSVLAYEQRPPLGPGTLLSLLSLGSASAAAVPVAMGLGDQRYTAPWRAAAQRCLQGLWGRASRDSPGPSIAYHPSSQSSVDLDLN

human TGR5 (h-TGR5) = biological target: T2, human TGR5 (h-TGR5) (Homo sapiens, UniProt Q8TDU6); assay: TGR5/CRE-Luciferase Assay; format: cell-based; conditions: HEK 293 hTGR5/CRE-Luc cells, 6 hours incubation, read-out: CRE-Luc Agonist (EC50)
T2 sequence (Q8TDU6 1-330): T1 sequence (Q8TDU6 1-330)
Method in brief: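 HEK 293 CRE-Luciferase cells stably expressing the receptor, plated in DMEM 18-20 h before assay, then exposed to serially diluted compounds (DMEM with 5% DMSO) for 6 h. Luciferase read-out after lysis; EC50 from dose-response.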

EC50 (h-TGR5) [µM] | EC50 (human TGR5 (h-TGR5)) [µM] | SMILES
< 0.1 | < 0.1 | COc1cc(C(C)(C)c2cnc(SCc3c(F)cc(S(=O)(=O)N(CCC[N+](C)(C)C)CC(=O)O)cc3Cl)n2-c2ccc(F)cc2)ccc1Cl [Compound 14s, 3-[(carboxymethyl){[3-chloro-4-({[5-{1-[4-chloro-3-(methyloxy)phenyl]-1-methylethyl}-1-(4-fluorophenyl)-1H-imidazol-2-yl]thio}methyl)-5-fluorophenyl]sulfonyl}amino]-N,N,N-trimethylpropan-1-aminium]
< 0.1 | < 0.1 | COc1cc(C(C)(C)c2cnc(SCc3c(F)cc(S(=O)(=O)N(CCC[N+](C)(C)C)[C@@H](CO)C(=O)O)cc3F)n2-c2ccc(F)cc2)ccc1Cl [Compound 14t, 3-([(1S)-1-carboxy-2-hydroxyethyl]{[4-({[5-{1-[4-chloro-3-(methyloxy)phenyl]-1-methylethyl}-1-(4-fluorophenyl)-1H-imidazol-2-yl]thio}methyl)-3,5-difluorophenyl]sulfonyl}amino)-N,N,N-trimethylpropan-1-aminium]
< 0.1 | < 0.1 | COc1cc(C(C)(C)c2cnc(SCc3c(F)cc(S(=O)(=O)N(CCC[N+](C)(C)C)CCC(=O)O)cc3Cl)n2-c2ccc(F)cc2)ccc1Cl [Compound 14u, 3-[(2-carboxyethyl){[3-chloro-4-({[5-{1-[4-chloro-3-(methyloxy)phenyl]-1-methylethyl}-1-(4-fluorophenyl)-1H-imidazol-2-yl]thio}methyl)-5-fluorophenyl)sulfonyl}amino]-N,N,N-trimethylpropan-1-aminium]
< 0.1 | < 0.1 | COc1cc(C(C)(C)c2cnc(SCc3c(F)cc(S(=O)(=O)N(CCC[N+](C)(C)C)Cc4cccc(C(=O)O)c4)cc3F)n2-c2ccc(F)cc2)ccc1Cl [Compound 14v, 3-([(3-carboxyphenyl)methyl]{[4-({[5-{1-[4-chloro-3-(methyloxy)phenyl]-1-methylethyl}-1-(4-fluorophenyl)-1H-imidazol-2-yl]thio}methyl)-3,5-difluorophenyl]sulfonyl}amino)-N,N,N-trimethylpropan-1-aminium]
< 0.1 | < 0.1 | CC[C@@H](C(=O)O)N(CCC[N+](C)(C)C)S(=O)(=O)c1cc(F)c(CSc2ncc(C(C)(C)c3ccc(Cl)c(OC)c3)n2-c2ccc(F)cc2)c(Cl)c1 [Compound 14w, 3-([(1S)-1-carboxypropyl]{[3-chloro-4-({[5-{1-[4-chloro-3-(methyloxy)phenyl]-1-methylethyl}-1-(4-fluorophenyl)-1H-imidazol-2-yl]thio}methyl)-5-fluorophenyl]sulfonyl}amino)-N,N,N-trimethylpropan-1-aminium]
< 0.1 | < 0.1 | COc1cc(C(C)(C)c2cnc(SCc3c(F)cc(S(=O)(=O)N(CCC[N+](C)(C)C)[C@@H](C)C(=O)O)cc3Cl)n2-c2ccc(F)cc2)ccc1Cl [Compound 14x, 3-([(1S)-1-carboxyethyl]{[3-chloro-4-({[5-{1-[4-chloro-3-(methyloxy)phenyl]-1-methylethyl}-1-(4-fluorophenyl)-1H-imidazol-2-yl]thio}methyl)-5-fluorophenyl]sulfonyl}amino)-N,N,N-trimethylpropan-1-aminium]
< 0.1 | < 0.1 | COc1cc(C(C)(C)c2cnc(SCc3c(F)cc(S(=O)(=O)N(CCC[N+](C)(C)C)[C@H](C)C(=O)O)cc3Cl)n2-c2ccc(F)cc2)ccc1Cl [Compound 14y, 3-([(1R)-1-carboxyethyl]{[3-chloro-4-({[5-{1-[4-chloro-3-(methyloxy)phenyl]-1-methylethyl}-1-(4-fluorophenyl)-1H-imidazol-2-yl]thio}methyl)-5-fluorophenyl]sulfonyl}amino)-N,N,N-trimethylpropan-1-aminium]
< 0.1 | < 0.1 | COc1cc(C(C)(C)c2cnc(SCc3c(F)cc(S(=O)(=O)N(CCC[N+](C)(C)C)C4(C(=O)O)CC4)cc3Cl)n2-c2ccc(F)cc2)ccc1Cl [Compound 14z, 3-[(1-carboxycyclopropyl){[3-chloro-4-({[5-{1-[4-chloro-3-(methyloxy)phenyl]-1-methylethyl}-1-(4-fluorophenyl)-1H-imidazol-2-yl]thio}methyl)-5-fluorophenyl]sulfonyl}amino]-N,N,N-trimethylpropan-1-aminium]
< 0.1 | < 0.1 | COc1cc(C(C)(C)c2cnc(SCc3c(F)cc(S(=O)(=O)N(CC4CC[N+](C)(C)CC4)[C@H](C)C(=O)O)cc3F)n2-c2ccc(F)cc2)ccc1Cl [Compound 15, 2,2,2-trifluoroacetate]
< 0.1 | < 0.1 | COc1cc(C(C)(C)c2cnc(SCc3c(F)cc(S(=O)(=O)N(CCC[n+]4ccccc4)[C@H](C)C(=O)O)cc3Cl)n2-c2ccc(F)cc2)ccc1Cl [Compound 15a, (R)-1-(3-(N-(1-carboxyethyl)-3-chloro-4-((5-(2-(4-chloro-3-methoxyphenyl)propan-2-yl)-1-(4-fluorophenyl)-1H-imidazol-2-ylthio)methyl)-5-fluorophenylsulfonamido)propyl)pyridinium chloride]
< 0.1 | < 0.1 | COc1cc(C(C)(C)c2cnc(SCc3c(F)cc(S(=O)(=O)N(CCC[n+]4ccn(C)c4)[C@H](C)C(=O)O)cc3Cl)n2-c2ccc(F)cc2)ccc1Cl [Compound 15b, (R)-3-(3-(N-(1-carboxyethyl)-3-chloro-4-((5-(2-(4-chloro-3-methoxyphenyl)propan-2-yl)-1-(4-fluorophenyl)-1H-imidazol-2-ylthio)methyl)-5-fluorophenylsulfonamido)propyl)-1-methyl-1H-imidazol-3-ium chloride]
< 0.1 | < 0.1 | COc1cc(C(C)(C)c2cnc(SCc3c(F)cc(S(=O)(=O)N(C)[C@@H](CCC[N+](C)(C)C)C(=O)O)cc3F)n2-c2ccc(F)cc2)ccc1Cl [Compound 16, (S)-4-carboxy-4-(4-((5-(2-(4-chloro-3-methoxyphenyl)propan-2-yl)-1-(4-fluorophenyl)-1H-imidazol-2-ylthio)methyl)-3,5-difluoro-N-methylphenylsulfonamido)-N,N,N-trimethylbutan-1-aminium 2,2,2-trifluoroacetate]
< 0.1 | < 0.1 | COc1cc(C(C)(C)c2cnc(SCc3c(F)cc(S(=O)(=O)N(C)[C@@H](CCC[N+](C)(C)C)C(=O)[O-])cc3F)n2-c2ccc(F)cc2)ccc1Cl [Compound 17]
< 0.1 | < 0.1 | CCN([C@@H](CCC[N+](C)(C)C)C(=O)O)S(=O)(=O)c1cc(F)c(CSc2ncc(C(C)(C)c3ccc(Cl)c(OC)c3)n2-c2ccc(F)cc2)c(F)c1 [Compound 17a, (S)-4-carboxy-4-(4-((5-(2-(4-chloro-3-methoxyphenyl)propan-2-yl)-1-(4-fluorophenyl)-1H-imidazol-2-ylthio)methyl)-N-ethyl-3,5-difluorophenylsulfonamido)-N,N,N-trimethylbutan-1-aminium 2,2,2-trifluoroacetate]
< 0.1 | < 0.1 | COc1cc(C(C)(C)c2cnc(SCc3c(F)cc(S(=O)(=O)N(C)[C@@H](CCC[N+](C)(C)C)C(=O)O)cc3Cl)n2-c2ccc(F)cc2)ccc1Cl [Compound 17b, (S)-4-carboxy-4-(3-chloro-4-((5-(2-(4-chloro-3-methoxyphenyl)propan-2-yl)-1-(4-fluorophenyl)-1H-imidazol-2-ylthio)methyl)-5-fluoro-N-methylphenylsulfonamido)-N,N,N-trimethylbutan-1-aminium 2,2,2-trifluoroacetate]
< 0.1 | < 0.1 | COc1cc(C(C)(C)c2cnc(SCc3c(F)cc(S(=O)(=O)N(C)[C@H](CCC[N+](C)(C)C)C(=O)O)cc3F)n2-c2ccc(F)cc2)ccc1Cl [Compound 17c, (R)-4-carboxy-4-(4-((5-(2-(4-chloro-3-methoxyphenyl)propan-2-yl)-1-(4-fluorophenyl)-1H-imidazol-2-ylthio)methyl)-3,5-difluoro-N-methylphenylsulfonamido)-N,N,N-trimethylbutan-1-aminium 2,2,2-trifluoroacetate]
< 0.1 | < 0.1 | COc1cc(C(C)(C)c2cnc(SCc3c(F)cc(S(=O)(=O)N(C)[C@H](CCC[N+](C)(C)C)C(=O)O)cc3Cl)n2-c2ccc(F)cc2)ccc1Cl [Compound 17d, (R)-4-carboxy-4-(3-chloro-4-((5-(2-(4-chloro-3-methoxyphenyl)propan-2-yl)-1-(4-fluorophenyl)-1H-imidazol-2-ylthio)methyl)-5-fluoro-N-methylphenylsulfonamido)-N,N,N-trimethylbutan-1-aminium 2,2,2-trifluoroacetate]
< 0.1 | < 0.1 | COc1cc(C(C)(C)c2cnc(SCc3c(F)cc(S(=O)(=O)N[C@@H](CCCC[N+](C)(C)C)C(=O)O)cc3Cl)n2-c2ccc(F)cc2)ccc1Cl [Compound 17e, (S)-5-carboxy-5-(3-chloro-4-((5-(2-(4-chloro-3-methoxyphenyl)propan-2-yl)-1-(4-fluorophenyl)-1H-imidazol-2-ylthio)methyl)-5-fluorophenylsulfonamido)-N,N,N-trimethylpentan-1-aminium 2,2,2-trifluoroacetate]
